Article PMC5520216, “Frutapin, a lectin from Artocarpus incisa (breadfruit): cloning, expression and molecular insights” (Bioscience Reports, 2017)
One block for each compound: values may come before it.

Legend:
[1] = target: T1, Frutapin (FTP), recombinant (Artocarpus altilis, UniProt A0A2D0TC52); experiment: inhibition of haemagglutination of red blood cells, double serial dilution; assay type: cell-based; settings: 37 °C, 1 h, visual read-out, carbohydrate-binding site
T1 construct: full-length FTP (450 bp clone from leaf cDNA, codon-optimised ORF), pET SUMO in E. coli BL21, His-SUMO tag cut off with ULP1
T1 sequence (A0A2D0TC52 entry or part of it): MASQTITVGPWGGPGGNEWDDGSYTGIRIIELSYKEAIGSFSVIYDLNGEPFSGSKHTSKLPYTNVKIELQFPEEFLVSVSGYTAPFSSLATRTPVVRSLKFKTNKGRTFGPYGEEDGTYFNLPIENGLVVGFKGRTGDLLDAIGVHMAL

[2] = target: T1, Frutapin (FTP), recombinant; experiment: X-ray co-crystal structure, […] Å; settings: co-crystallised with 100 mM glucose, glycerol removed; carbohydrate-binding site of all four monomers
[3] = target: T1, Frutapin (FTP), recombinant; experiment: X-ray co-crystal structure, […] Å; settings: co-crystallised with 20 mM mannose, glycerol removed; carbohydrate-binding site of all four monomers
[4] = target: Frutapin (FTP), recombinant, mannose-binding lectin from Artocarpus incisa (breadfruit) (Artocarpus incisa (breadfruit)); experiment: native gel or EMSA; native gel electrophoresis of purified FTP after removal of the SUMO tag; size from a plot of Rf against log10 (MWt)

inhibitory sugar concentration ([1]; 42.8 µg/ml FTP): 100 mM
Compound: OC[C@H]1OC(O)[C@H](O)[C@@H](O)[C@@H]1O (some centres unmarked) [glucose]

inhibitory sugar concentration ([1]; 12.4 µg/ml FTP): 6.25 mM
Compound: OC[C@H]1OC(O)[C@@H](O)[C@@H](O)[C@@H]1O (some centres unmarked) [mannose]

Second part, the compound before the results:

Compound: OC[C@H]1O[C@H](O)[C@H](O)[C@@H](O)[C@@H]1O [α-D-glucose]
X-ray co-crystal structure, 1.60 Å [2]: FTP was also co-crystallized with mannose and glucose

Compound: OC[C@H]1O[C@H](O)[C@@H](O)[C@@H](O)[C@@H]1O [α-D-mannose]
X-ray co-crystal structure, 1.70 Å [3]: FTP was also co-crystallized with mannose and glucose

Compound: Frutapin (FTP), recombinant, mannose-binding lectin from Artocarpus incisa (breadfruit) (natural protein)
stoichiometry N [4]: 4
